# Measurements from ChEMBL document CHEMBL1201862, “PubChem BioAssay data set” (2004).
#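 1) Cells in 96-well plates. 2) Compound, 48 h, 5 concentrations. 3) Linear interpolation between surrounding doses. 4) Unreached endpoint = highest concentration. The concentration for 50% growth inhibition is given as GI50.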 Activity calls are given as the source filed them. Cut-off read from the data, not from the text of the source: active = GI50 up to about 1.1 µM and inactive = higher.
# How the values were obtained:
# Test in all cases: growth of human tumour cells (NCI), 48 h
# [1] = system: HOP-92
# [2] = system: HT-29
# [3] = system: CAKI-1
# [4] = system: SK-MEL-28
# [5] = system: OVCAR-8
# [6] = system: HCC 2998
# [7] = system: UACC-257
# [8] = system: OVCAR-3
# [9] = system: CCRF-CEM
# [10] = system: M14
# [11] = system: SNB-75
# [12] = system: NCI-H23
# [13] = system: NCI-H226
# [14] = system: 786-0
# [15] = system: MOLT-4
# [16] = system: LOX IMVI
# [17] = system: COLO 205
# [18] = system: DU-145
# [19] = system: MCF7
SMILES,GI50 [1],GI50 [2],GI50 [3],GI50 [4],GI50 [5],GI50 [6],GI50 [7],GI50 [8],GI50 [9],GI50 [10],GI50 [11],GI50 [12],GI50 [13],GI50 [14],GI50 [15],GI50 [16],GI50 [17],GI50 [18],GI50 [19]
O=C(CCc1nnc2s/c(=C\c3ccc4c(c3)OCO4)c(=O)n12)Nc1cc(Cl)ccc1Cl,> 100 µM (inactive),> 100 µM (inactive),> 100 µM (inactive),> 100 µM (inactive),> 100 µM (inactive),> 100 µM (inactive),> 100 µM (inactive),> 100 µM (inactive),> 100 µM (inactive),> 100 µM (inactive),> 100 µM (inactive),> 100 µM (inactive),> 100 µM (inactive),> 100 µM (inactive),> 100 µM (inactive),> 100 µM (inactive),> 74.1 µM (inactive),,
S=C1NC(c2ccccc2)=NC(Cc2ccccc2)(c2ccccc2)N1c1ccccc1 (stereo unspecified),> 100 µM (inactive),> 100 µM (inactive),> 100 µM (inactive),> 100 µM (inactive),41.4 µM (inactive),> 100 µM (inactive),> 100 µM (inactive),> 100 µM (inactive),> 100 µM (inactive),> 100 µM (inactive),19.7 µM (inactive),> 100 µM (inactive),> 100 µM (inactive),> 100 µM (inactive),> 100 µM (inactive),96.6 µM (inactive),> 100 µM (inactive),,
COC(=O)/C=C/COCC1C2CCC(=O)C21 (stereo unspecified),> 100 µM (inactive),> 100 µM (inactive),27.4 µM (inactive),> 100 µM (inactive),> 100 µM (inactive),> 100 µM (inactive),> 100 µM (inactive),> 100 µM (inactive),> 100 µM (inactive),> 100 µM (inactive),> 100 µM (inactive),> 100 µM (inactive),> 100 µM (inactive),> 100 µM (inactive),> 100 µM (inactive),> 100 µM (inactive),> 100 µM (inactive),> 100 µM (inactive),> 100 µM (inactive)
CN1N=CSC12C(=O)N(c1ccc(Cl)cc1)C(=O)N2c1ccc(Cl)cc1 (stereo unspecified),3.15 µM (inactive),3.4 µM (inactive),3.92 µM (inactive),4.4 µM (inactive),3.51 µM (inactive),3.33 µM (inactive),3.15 µM (inactive),1.43 µM (inactive),3.37 µM (inactive),5.42 µM (inactive),3.99 µM (inactive),2.12 µM (inactive),3.04 µM (inactive),4.22 µM (inactive),2.67 µM (inactive),3.21 µM (inactive),1.93 µM (inactive),,
C(=C\c1ccccc1)/Cn1nc(-c2ccccc2)nc1-c1cnccn1,35.9 µM (inactive),> 100 µM (inactive),,> 100 µM (inactive),> 100 µM (inactive),> 100 µM (inactive),> 100 µM (inactive),> 100 µM (inactive),> 100 µM (inactive),> 100 µM (inactive),18.7 µM (inactive),> 100 µM (inactive),,> 100 µM (inactive),> 100 µM (inactive),> 100 µM (inactive),> 100 µM (inactive),> 100 µM (inactive),> 100 µM (inactive)
CC(=O)NC(C)(C)C1CCC(C)=C(c2ccccc2)C1 (stereo unspecified),19.5 µM (inactive),> 100 µM (inactive),,> 100 µM (inactive),> 100 µM (inactive),> 100 µM (inactive),> 100 µM (inactive),> 100 µM (inactive),96.8 µM (inactive),> 100 µM (inactive),53.6 µM (inactive),> 100 µM (inactive),,> 100 µM (inactive),> 100 µM (inactive),> 100 µM (inactive),> 100 µM (inactive),> 100 µM (inactive),> 100 µM (inactive)
O=C(N/N=C(COc1ccc([N+](=O)[O-])cc1)\N=C\c1ccncc1)c1ccncc1,,> 100 µM (inactive),> 100 µM (inactive),> 100 µM (inactive),60.1 µM (inactive),> 100 µM (inactive),> 100 µM (inactive),> 100 µM (inactive),> 100 µM (inactive),> 100 µM (inactive),94.6 µM (inactive),> 100 µM (inactive),> 100 µM (inactive),> 100 µM (inactive),> 100 µM (inactive),0.564 µM (active),> 100 µM (inactive),> 100 µM (inactive),> 100 µM (inactive)
Cn1cc2ccccc2c1-c1nc(N)nc(F)n1,> 100 µM (inactive),> 100 µM (inactive),> 100 µM (inactive),> 100 µM (inactive),> 100 µM (inactive),> 100 µM (inactive),> 100 µM (inactive),> 100 µM (inactive),> 100 µM (inactive),> 100 µM (inactive),47.3 µM (inactive),> 100 µM (inactive),29.5 µM (inactive),> 100 µM (inactive),> 100 µM (inactive),> 100 µM (inactive),> 100 µM (inactive),,
CS(=O)(=O)OCCN(CCOS(C)(=O)=O)c1ccc(/C=N/N=c2/nc[nH]c3nc[nH]c23)cc1,16.9 µM (inactive),17.8 µM (inactive),14.2 µM (inactive),19.3 µM (inactive),20.7 µM (inactive),19.4 µM (inactive),19.8 µM (inactive),13.4 µM (inactive),8.09 µM (inactive),17.6 µM (inactive),14.6 µM (inactive),14.8 µM (inactive),19.3 µM (inactive),16.3 µM (inactive),4.84 µM (inactive),15.1 µM (inactive),17.2 µM (inactive),,
COc1ccc2nc(NC(=O)C(=O)C(C#N)c3ccc(CC#N)cc3)sc2c1 (stereo unspecified),96.8 µM (inactive),> 100 µM (inactive),> 100 µM (inactive),> 100 µM (inactive),> 100 µM (inactive),> 100 µM (inactive),> 100 µM (inactive),> 100 µM (inactive),> 100 µM (inactive),> 100 µM (inactive),> 100 µM (inactive),> 100 µM (inactive),> 100 µM (inactive),> 100 µM (inactive),> 100 µM (inactive),> 100 µM (inactive),> 100 µM (inactive),,
CCOc1ccc(NC(=O)C(=O)C(C(=O)c2ccc3ccccc3c2)C2OC(=O)c3ccccc32)cc1 (stereo unspecified),19.5 µM (inactive),34.4 µM (inactive),23.8 µM (inactive),13.6 µM (inactive),17.6 µM (inactive),11.2 µM (inactive),17 µM (inactive),16.2 µM (inactive),7.08 µM (inactive),18.5 µM (inactive),15.7 µM (inactive),11.7 µM (inactive),3.31 µM (inactive),6.47 µM (inactive),4.57 µM (inactive),15.7 µM (inactive),19.1 µM (inactive),,
O=S1(=O)OCCOS(=O)(=O)C1(I)I,13.7 µM (inactive),24.8 µM (inactive),17.3 µM (inactive),19.9 µM (inactive),20.7 µM (inactive),20.8 µM (inactive),22.6 µM (inactive),24 µM (inactive),10.9 µM (inactive),20 µM (inactive),18.1 µM (inactive),11.1 µM (inactive),15.3 µM (inactive),20.1 µM (inactive),15.9 µM (inactive),16.2 µM (inactive),16.9 µM (inactive),,
CNC(=O)NCCCCC(NC(=O)OCc1ccccc1)C(=O)OCc1ccccc1 (stereo unspecified),36 µM (inactive),71.4 µM (inactive),23.7 µM (inactive),21.1 µM (inactive),29.4 µM (inactive),20.3 µM (inactive),18.6 µM (inactive),16.1 µM (inactive),17.9 µM (inactive),16.5 µM (inactive),20.2 µM (inactive),29.3 µM (inactive),60.3 µM (inactive),17.5 µM (inactive),20.8 µM (inactive),16.7 µM (inactive),17.7 µM (inactive),,
O=C(C#Cc1ccccc1)NC/C=C/c1ccccc1,25.4 µM (inactive),50.2 µM (inactive),37.2 µM (inactive),76.4 µM (inactive),35.2 µM (inactive),35.2 µM (inactive),> 100 µM (inactive),33 µM (inactive),36.8 µM (inactive),55.3 µM (inactive),17.8 µM (inactive),44.4 µM (inactive),31.6 µM (inactive),24.2 µM (inactive),33.6 µM (inactive),38.5 µM (inactive),83.4 µM (inactive),,
CCN(CC)c1nnc(CCCCCCCCc2nnc(N(CC)CC)o2)o1,> 100 µM (inactive),> 100 µM (inactive),> 100 µM (inactive),> 100 µM (inactive),> 100 µM (inactive),,> 100 µM (inactive),> 100 µM (inactive),> 100 µM (inactive),> 100 µM (inactive),> 100 µM (inactive),> 100 µM (inactive),> 100 µM (inactive),> 100 µM (inactive),> 100 µM (inactive),> 100 µM (inactive),> 100 µM (inactive),> 100 µM (inactive),> 100 µM (inactive)
C#CC1(O)CCC2[C@@H]3CCc4cc(Oc5nc(F)nc(-c6c7ccccc7cn6C)n5)ccc4C3CC[C@@]21C (stereo partly specified),> 100 µM (inactive),> 100 µM (inactive),> 100 µM (inactive),> 100 µM (inactive),> 100 µM (inactive),> 100 µM (inactive),> 100 µM (inactive),> 100 µM (inactive),30.7 µM (inactive),> 100 µM (inactive),> 91.2 µM (inactive),> 100 µM (inactive),> 100 µM (inactive),> 100 µM (inactive),44.9 µM (inactive),> 100 µM (inactive),> 78.9 µM (inactive),,
